For one test, the system named is P. aeruginosa PAO1. Kind of test: MIC of antibiotics against P. aeruginosa PAO1 with or without polyamines. To be noted: for MIC values in the presence versus the absence of polyamines: hydrophobic antibiotics (FIG. 1). It is filed as cell-based.
The subject of test [1] is E. coli (K10, K12, C921-61). The experiment in a line: MIC of antibiotics against E. coli strains with or without polyamines (FIG. 3). To be noted: E. coli K10, K12, C921-61 and S. typhimurium LT2. It is filed as cell-based.
Procedure: (§1) Various strains of bacteria, including P. aeruginosa and e. coli were grown on Luria-Bertani (LB) agar/broth or Mueller-Hinton (MH) agar/broth. […] The antibiotics, chemicals, and/or polyamines were dissolved in double distilled water or solvent and thereafter filtered through a 0.4 μm disposable membranes.
(§2) The MIC values of the strains associated with various combinations of polyamines and antibiotics were determined using standard two-fold agar dilutions techniques and broth dilutions techniques in Mueller-Hinton broth. The lowest concentration of drug with no visible turbidity was deemed the MIC.
Test [2] deals with Salmonella typhimurium LT2. To be noted: for MICs in the indicated concentrations (mM) of polyamines: Spermine (1 mM): with 1 mM spermine; for MICs in the indicated concentrations (mM) of polyamines: Spermidine (20 mM): with 20 mM spermidine.
Procedure: as §1, §2
The test system of test [3] is Salmonella typhimurium LT2. The experiment in a line: microbe, parasite or virus in culture. To be noted: Salmonella enterica, read-out: MICs in the indicated concentrations (mM) of polyamines: No add.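 Further: Two-fold agar or broth dilution in Mueller-Hinton broth, MIC taken as lowest drug concentration without visible turbidity, tested alone or combined with polyamines.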
Procedure: as §1, §2
In test [4] the test system is methicillin resistant Staphylococcus aureus (MRSA) Mu50. The experiment in a line: MIC of antibiotics against MRSA Mu50 with or without spermine. It is filed as cell-based. The conditions noted are these: for MIC: Staphylococcus aureus, MRSA, no spermine, read-out: MICs in the presence or absence of spermine (1 mM): No add; for MICs in the presence or absence of spermine (1 mM): Spermine: with 1 mM spermine.

Test [5] has as its system MRSA Staphylococcus aureus 700699. The experiment in a line: MIC of antibiotics against MRSA Staphylococcus aureus 700699 with or without spermine. It is filed as cell-based. The conditions noted are these: for MIC: Staphylococcus aureus, MRSA, no spermine, read-out: MICs in the absence or presence of spermine: No add; for MICs in the absence or presence of spermine: Spermine (1 mM): with 1 mM spermine.

The subject of test [6] is outer membrane permeability. Kind of test: Outer membrane permeabilization assay (β-lactamase activity in whole cells or released into suspension). It is filed as cell-based. On the procedure:
The β-lactamase activity was determined by a spectrophotometric method using nitrocefin as a substrate. After the β-lactamase was extracted from the cells, the β-lactamase activity was monitored by absorbance changes in wavelength at 486 nm with a molar extinction coefficient of 20500. The extent of hydrolysis was a reflection of the amount of enzyme remaining uninhibited.
An outer membrane permeabilization assay was performed by examining the release of the chromosomally encoded β-lactamase. Briefly, stationary phase cells were diluted 1:59 into 20 mL pre-warmed MMP broth and cultured in an incubator at 350 rpm and at 37 C for 5 hours. After carbenicillin (200 μg/mL) was added to induce β-lactamase activity, the culture was incubated for additional 5 hours. The cells were harvested by centrifugation at 5,000×g for 10 minutes and washed once with 0.05M sodium phosphate buffer at pH 7.2. The cell pellet was resuspended in 5 mL of the same buffer and divided into 1 mL aliquots. […] […] The reaction mixtures were incubated at room temperature for 5 minutes and immediately centrifuged at full speed (15000×g) for 20 minutes and the supernatant was used for β-lactamase sources. β-lactamase activity was determined as described above using 300 μL of the supernatant.

In brackets after ≈: the same amount, converted by molar mass. Some results are limits rather than exact numbers.

Twelve compounds from patent US20060270648A1, “USE OF POLYAMINES WITH ANTIBIOTICS” (priority 2005, published 2006) can be followed below.

Procedure for P. aeruginosa PAO1: as §1, §2

Consider `CC[C@H]1OC(=O)[C@H](C)[C@@H](O[C@H]2C[C@@](C)(OC)[C@@H](O)[C@H](C)O2)[C@H](C)[C@@H](O[C@@H]2O[C@H](C)C[C@H](N(C)C)[C@H]2O)[C@](C)(O)C[C@@H](C)C(=O)[C@H](C)[C@@H](O)[C@]1(C)O` [Erythromycin], for which the “MIC values in the presence versus the absence of polyamines” value in the test with P. aeruginosa PAO1 is given as “identical”. Further, the “susceptibility with the combination of polyamines and antibiotics” value (shortened to “susceptibility with the combination”) in test [1] was “improved susceptibility”. In addition, in test [2], the “MICs in the indicated concentrations (mM) of polyamines: Spermine (1 mM)” value (shortened to “MICs in the indicated concentrations … (1 mM)”) is 32 µg/mL and the “MICs in the indicated concentrations (mM) of polyamines: Spermidine (20 mM)” value (“MICs in the indicated concentrations … (20 mM)” for short) was found to be 64 µg/mL. Moreover, the MIC in test [3] was 64 µg/mL (≈ 87.2 µM).

`CC(=O)O[C@H]1C[C@@]2(C)[C@@H](C[C@@H](O)[C@H]3[C@@]4(C)CC[C@@H](O)[C@@H](C)[C@@H]4CC[C@@]32C)/C1=C(\CCC=C(C)C)C(=O)O` [Fusidic acid]: in the test with P. aeruginosa PAO1, the “MIC values in the presence versus the absence of polyamines” value is listed as “identical”. Also, the “susceptibility with the combination” value in test [1] was “improved susceptibility”. In addition, in test [2], the “MICs in the indicated concentrations … (1 mM)” value stood at 1024 µg/mL and the “MICs in the indicated concentrations … (20 mM)” value turned out to be 1024 µg/mL. For the same compound, the MIC in test [3] is greater than 1020 µg/mL.

With `CCN1CCN(C(=O)N[C@@H](C(=O)N[C@@H]2C(=O)N3[C@@H]2SC(C)(C)[C@@H]3C(=O)O)c2ccccc2)C(=O)C1=O` [Piperacillin], in test [4], the MIC amounted to 32 µg/mL and the “MICs in the presence or absence of spermine (1 mM): Spermine” value (“MICs in the presence or absence” for short) stood at 2 µg/mL. Besides, in test [5], the MIC came to 32 µg/mL and the “MICs in the absence or presence of spermine: Spermine (1 mM)” value (“MICs in the absence or presence” below) amounted to 2 µg/mL. Besides, the “susceptibility with the combination” value in test [1] is “improved susceptibility”. Moreover, in test [2], the “MICs in the indicated concentrations … (1 mM)” value was determined as 0.5 µg/mL and the “MICs in the indicated concentrations … (20 mM)” value was 0.25 µg/mL. Moreover, in test [3], the MIC was 4 µg/mL (≈ 7.73 µM).

With `O=C(O)CN(CCN(CC(=O)O)CC(=O)O)CC(=O)O` [EDTA], the entries for the “release of periplasmic β-lactamase into the suspension solution” value in test [6] (0.5 mM (FIG. 6)) and in test [6] (1 mM (FIG. 6)) were “can be detected” and “increased”, respectively.

As for `CN[C@@H]1[C@H](O)[C@H](NC)[C@H]2O[C@@]3(O)C(=O)C[C@@H](C)O[C@H]3O[C@@H]2[C@H]1O` [Spectinomycin], in test [1], the “susceptibility with the combination” value is recorded as “improved susceptibility”. Besides, in test [2], the “MICs in the indicated concentrations … (1 mM)” value stood at 32 µg/mL and the “MICs in the indicated concentrations … (20 mM)” value stood at 32 µg/mL. Also, the MIC in test [3] came out at 32 µg/mL (≈ 96.3 µM).

Take Polymyxin B: in test [4], the “MICs in the presence or absence” value worked out at 64 µg/mL. For the same compound, the “β-lactamase activities detected in the whole cells” value in test [6] (100 μg/mL applied to the cell suspension (FIG. 5)) was “significant activities”.

`NCCCCNCCCN` [Spermidine]: the “MICs to carbenicillin in the indicated concentration of polyamines” value in the test on P. aeruginosa PAO1 (0 mM polyamine) is 64 µg/mL; in the test on P. aeruginosa PAO1 (0.5 mM polyamine), 32 µg/mL; in the test with P. aeruginosa PAO1 (1 mM polyamine), 16 µg/mL; in the test on P. aeruginosa PAO1 (5 mM polyamine) it was 16 µg/mL; in the test on P. aeruginosa PAO1 (10 mM polyamine), 8 µg/mL; with P. aeruginosa PAO1 (20 mM polyamine) it was 4 µg/mL. In addition, the β-lactamase activity detected entry in test [6] (20 mM (FIG. 7)) is recorded as “only a very low level”.

For the compound `CO[C@@H]1[C@@H](OC(N)=O)[C@@H](O)[C@H](Oc2ccc3c(O)c(NC(=O)c4ccc(O)c(CC=C(C)C)c4)c(=O)oc3c2C)OC1(C)C` [Novobiocin], the “MIC values in the presence versus the absence of polyamines” value in the test on P. aeruginosa PAO1 is “identical”. The “susceptibility with the combination” value in test [1] is “improved susceptibility”. In test [2], the “MICs in the indicated concentrations … (1 mM)” value turned out to be 1024 µg/mL and the “MICs in the indicated concentrations … (20 mM)” value is 256 µg/mL. In addition, the MIC in test [3] is greater than 1020 µg/mL.

On to `O=C(N[C@H](CO)[C@H](O)c1ccc([N+](=O)[O-])cc1)C(Cl)Cl` [Chloramphenicol], for which, in test [4], the MIC is 8 µg/mL and the “MICs in the presence or absence” value worked out at 2 µg/mL. For the same compound, in test [5], the MIC came to 8 µg/mL and the “MICs in the absence or presence” value came to 2 µg/mL. Further, the “susceptibility with the combination” value in test [1] is “improved susceptibility”. In addition, in test [2], the “MICs in the indicated concentrations … (1 mM)” value amounted to 1 µg/mL and the “MICs in the indicated concentrations … (20 mM)” value was determined as 1 µg/mL. Further, in test [3], the MIC stood at 2 µg/mL (≈ 6.19 µM).

`Cc1onc(-c2ccccc2)c1C(=O)N[C@@H]1C(=O)N2[C@@H]1SC(C)(C)[C@@H]2C(=O)O` [Oxacillin]: in test [4], the MIC is no less than 256 µg/mL and the “MICs in the presence or absence” value came to 1 µg/mL. Moreover, the “decrease of MIC with exogenous spermine” value in test [4] (spermine 1 mM and less) is listed as “over 100 fold”. Further, in test [5], the MIC was no less than 256 µg/mL and the “MICs in the absence or presence” value stood at 2 µg/mL. For the same compound, in test [1], the “susceptibility with the combination” value is given as “improved susceptibility”. Further, the “MICs in the indicated concentrations … (20 mM)” value in test [2] is 64 µg/mL. In addition, in test [3], the MIC stood at 256 µg/mL (≈ 638 µM).

For the compound `CC1(C)S[C@@H]2[C@H](NC(=O)[C@H](NC(=O)N3CCNC3=O)c3ccccc3)C(=O)N2[C@H]1C(=O)O` [Azlocillin], in test [4], the MIC was 16 µg/mL and the “MICs in the presence or absence” value came out at 0.5 µg/mL. For the same compound, in test [5], the MIC worked out at 16 µg/mL and the “MICs in the absence or presence” value was determined as 0.5 µg/mL. Also, in test [1], the “susceptibility with the combination” value is “improved susceptibility”. In test [2], the “MICs in the indicated concentrations … (1 mM)” value stood at 4 µg/mL and the “MICs in the indicated concentrations … (20 mM)” value turned out to be 1 µg/mL. The MIC in test [3] is 16 µg/mL (≈ 34.7 µM).

On to `CC1(C)S[C@@H]2[C@H](NC(=O)[C@H](C(=O)O)c3ccsc3)C(=O)N2[C@H]1C(=O)O` [Ticarcillin], for which, in test [4], the MIC was 256 µg/mL and the “MICs in the presence or absence” value worked out at 4 µg/mL. In test [5], the MIC came to 256 µg/mL and the “MICs in the absence or presence” value came out at 4 µg/mL. Besides, in test [1], the “susceptibility with the combination” value is reported as “improved susceptibility”. Besides, in test [2], the “MICs in the indicated concentrations … (1 mM)” value stood at 0.5 µg/mL and the “MICs in the indicated concentrations … (20 mM)” value was determined as 1 µg/mL. Moreover, the MIC in test [3] was determined as 4 µg/mL (≈ 10.4 µM).
